Where two headings read alike, the source gives them in different places.
Columns and labels:
[1] = test system: A549; assay: Cytotoxicity assay (MTT), A549 cell line; type: cell-based; conditions: 24 h
Method in brief: (§1)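 Viability was read as MTT-formazan absorbance at 490 nm after 0.5-2 h with reagent. This followed 24 h compound exposure (50 μM, 12.5 μM) at 37° C in RPM medium. Result expressed as OD490 treated over untreated cells ×100.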

[2] = test system: IL-6; assay: Inhibition of IL-6 production by stimulated human peripheral blood leukocytes in vitro; type: cell-based; conditions: Homo sapiens, Leukocyte, read-out: Percentage of inhibition of IL-6 production
Method in brief: (§2)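 Dextran-sedimented human PBL (3–5×10^6/well) preincubated 2 h at 37 °C with compounds at 50 μM or 10 μM, then stimulated overnight with LPS 2 μg/mL, PMA 1 μg/mL or zymosan 120 μg/mL. Supernatant cytokines quantified by sandwich ELISA; % inhibition versus stimulated untreated controls.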

[3] = test system: TNF-α; assay: Inhibition of TNF-α production by stimulated human peripheral blood leukocytes in vitro; type: cell-based; conditions: Homo sapiens, Leukocyte, read-out: Percentage of inhibition of TNF-α production
Method in brief: as §2

[4] = test system: IL-1α; assay: Inhibition of IL-1 production by stimulated human peripheral blood leukocytes in vitro; type: cell-based; conditions: Homo sapiens, Leukocyte, read-out: Percentage of inhibition of IL-1α production
[5] = test system: human peripheral blood mononuclear cells (PBMC); assay: Effects on human T-cell proliferation in vitro (3H-thymidine incorporation); type: cell-based; conditions: Homo sapiens, PBMC, read-out: Percentage of inhibition of proliferation of stimulated PBMC
Experimental: The influence of the various test compounds at two different concentrations (50 μM and 10 μM) on cell proliferation of human peripheral blood mononuclear cells (PBMC) was assessed. […] The cells were pulsed with 1 μCi of ^3H-thymidine (Amersham, USA) per well during the last 18 h of the culture, and were harvested on the 96-well filter (Packard Bioscience, USA) using a multiple cell harvester (Packard, USA). The incorporation of ^3H-thymidine in activated cells were measured using TopCount NXT (Packard, USA). […] The positive control refers to LPS-, PMA- or zymosan-stimulated samples that were not treated with test compounds.

[6] = test system: Hep G2; assay: Cytotoxicity assay (MTT), Hep G2 cell line; type: cell-based; conditions: 24 h
Method in brief: as §1

[7] = test system: IL-8; assay: Inhibition of IL-8 production by stimulated human peripheral blood leukocytes in vitro; type: cell-based; conditions: Homo sapiens, Leukocyte, read-out: Percentage of inhibition of IL-8 production
Method in brief: as §2

[8] = test system: TNF-α; assay: Lipopolysaccharide induced TNF-α production in Balb/cJ mice; type: in vivo; conditions: Mus musculus, ip, 1.5 h; 10 mg/kg intraperitoneally, 30 min before LPS; 90 min after LPS; read-out: % inhibition of TNF-α production (plasma)

| SMILES | Percentage of inhibition of cell growth ([1]; 12.5 μM) | Percentage of inhibition of cell growth ([1]; 50 μM) | inhibition at 10 µM ([2]; LPS-stimulated PBL) | inhibition at 10 µM ([2]; PMA-stimulated PBL) | inhibition at 10 µM ([2]; zymosan-stimulated PBL) | inhibition at 50 µM ([2]; LPS-stimulated PBL) | inhibition at 50 µM ([2]; PMA-stimulated PBL) | inhibition at 50 µM ([2]; zymosan-stimulated PBL) | inhibition at 10 µM ([3]; LPS-stimulated PBL) | inhibition at 10 µM ([3]; PMA-stimulated PBL) | inhibition at 10 µM ([3]; zymosan-stimulated PBL) | inhibition at 50 µM ([3]; LPS-stimulated PBL) | inhibition at 50 µM ([3]; PMA-stimulated PBL) | inhibition at 50 µM ([3]; zymosan-stimulated PBL) | inhibition at 10 µM ([4]; LPS-stimulated PBL) | inhibition at 10 µM ([4]; PMA-stimulated PBL) | inhibition at 10 µM ([4]; zymosan-stimulated PBL) | inhibition at 50 µM ([4]; LPS-stimulated PBL) | inhibition at 50 µM ([4]; PMA-stimulated PBL) | inhibition at 50 µM ([4]; zymosan-stimulated PBL) | also measured |
| --- | --- | --- | --- | --- | --- | --- | --- | --- | --- | --- | --- | --- | --- | --- | --- | --- | --- | --- | --- | --- | --- |
| CC[C@H]1OC(=O)[C@H](C)[C@@H](O[C@H]2C[C@@](C)(OC)[C@@H](OC(=O)CCN(CC)CC)[C@H](C)O2)[C@H](C)[C@@H](O[C@@H]2O[C@H](C)C[C@H](N(C)C)[C@H]2O)[C@](C)(OC)C[C@@H](C)C(=O)[C@H](C)[C@H]2NC(=O)O[C@@]21C [Example 9, 11,12-Carbamate-11,12-dideoxy-4″-O-(3-diethylamino-propionyl)-6-O-methyl-erythromycin A] | 0% | 0% | 22% | 30% | 0% | 100% | 95% | 100% | 73% | 93% | 14% | 96% | 85% | 72% | 72% | 69% | 82% | 82% | 72% | 0% | inhibition at 10 µM ([5]; PHA): 91%; inhibition at 50 µM ([5]; PHA): 100%; inhibition at 10 µM ([5]; PMA + iono.): 17%; inhibition at 50 µM ([5]; PMA + iono.): 100%; Percentage of inhibition of cell growth ([6]; 12.5 μM): 4%; Percentage of inhibition of cell growth ([6]; 50 μM): 15%; inhibition at 10 µM ([7]; LPS-stimulated PBL): 18%; inhibition at 10 µM ([7]; PMA-stimulated PBL): 0%; inhibition at 10 µM ([7]; zymosan-stimulated PBL): 0%; inhibition at 50 µM ([7]; LPS-stimulated PBL): 96%; inhibition at 50 µM ([7]; PMA-stimulated PBL): 94%; inhibition at 50 µM ([7]; zymosan-stimulated PBL): 91% |
| CC[C@H]1OC(=O)[C@H](C)[C@@H](O[C@H]2C[C@@](C)(OC)[C@@H](OC(=O)CCN(CC)CC)[C@H](C)O2)[C@H](C)[C@@H](O[C@@H]2O[C@H](C)C[C@H](NC)[C@H]2O)[C@](C)(OC)C[C@@H](C)C(=O)N[C@H](C)[C@@H](O)[C@]1(C)O [Example 54, 3′-N-Demethyl-4″-O-(3-diethylaminopropionyl)-6-O-methyl-9a-aza-9a-homoerythromycin A] | 0% | 0% | 0% | 0% | 9% | 58% | 71% | 87% | 3% | 25% | 11% | 55% | 96% | 92% | 60% | 62% | 56% | 69% | 97% | 98% | inhibition in vivo at 10 mg/kg [8]: 58%; Percentage of inhibition of cell growth ([6]; 12.5 μM): 1%; Percentage of inhibition of cell growth ([6]; 50 μM): 2%; inhibition at 10 µM ([7]; LPS-stimulated PBL): 0%; inhibition at 10 µM ([7]; PMA-stimulated PBL): 0%; inhibition at 10 µM ([7]; zymosan-stimulated PBL): 0%; inhibition at 50 µM ([7]; LPS-stimulated PBL): 82%; inhibition at 50 µM ([7]; PMA-stimulated PBL): 40%; inhibition at 50 µM ([7]; zymosan-stimulated PBL): 53% |

Reference: patent publication US8080529B2, “Macrolides with anti-inflammatory activity” (Glaxo Group Limited, priority 2005, dated 2011)
